# Source: patent US20260137742A1, “Composition for Activating Transient Receptor Potential Ankyrin 1, and Composition for Enhancing Food Consumption and/or Ameliorating Decreased Appetite” (HOUSE FOODS GROUP INC., priority 2022, published 2026)
# What was measured:
# human TRPA1 (hTRPA1) [1] = molecular target: T1, human TRPA1 (hTRPA1) (Homo sapiens, UniProt O75762); assay: Intracellular Ca2+ Imaging Assay 2 (stepwise concentrations 0.01 μM-300 μM); format: cell-based
# T1 construct: expressed in transfected cells
# Description: (§1) A DNA coding for human TRPA1 (hTRPA1) (GenBank accession number: NM_007332.3) was inserted into the pcDNA5/TO vector (Invitrogen) to create an expression vector. This expression vector was transfected into T-REx™-293 cells (Invitrogen) by a conventional method using Lipofectamine LTX (Invitrogen). Using 10% fetal bovine serum (FBS, Cytiva), 400μ/mL hygromycin B, and 5 μg/mL blasticidin S, which were added to Dulbecco's Modified Eagle Medium (DMEM, Nacalai Tesque) as drug selection medium, the transfectants were cultured by a conventional method and cloned to obtain an hTRPA1 stable expression cell line.
# (§2) Next, an hTRPA1 stable expression cell line whose hTRPA1 expression had been induced in advance by a conventional method was prepared in a 96-well clear-bottom plate; after washing each well with PBS, 50 μL of assay buffer (Hank's Balanced Salt Solution without calcium and magnesium ions, containing 1 mM CaCl2 dihydrate, 20 mM HEPES, 0.1% BSA, and 4 μM Calbryte™ 520 AM (manufactured by AAT BioQuest)) was added and incubated for 45 minutes at 33° C. After washing with assay buffer, 100 μL of assay buffer was added to each well.
# (§3) This plate was set in FlexStation3 (Molecular Devices) and the fluorescence intensity (excitation at 490 nm, emission at 525 nm) was measured every 2 seconds at 31° C.; 30 seconds after the start of measurement, 100 μL of assay buffer containing the negative control DMSO (final concentration: 20 μL/mL), the positive control allyl isothiocyanate (AITC) (AITC was dissolved in DMSO; final concentration: 30 μM), each mushroom extract solution described above, or lenthionine (manufactured by Ambeed, Inc.) (lenthionine was dissolved in DMSO; final concentration: 50 μM) was added. In addition, to determine the reference for fluorescence intensity, wells to which assay buffer containing ionomycin (final concentration: 10 µM after addition) was added were prepared instead of the test samples.
# (§4) Fluorescence intensity measurement was continued until 120 seconds from the start; the TRPA1-activating ability of the test samples and so forth was calculated using the formula below.
# Aside from using samples in which the concentrations of AITC or lenthionine were set stepwise in the range of 0.01 μM-300 μM, the procedure was the same as in (2) above; the TRPA1-activating abilities of each sample were measured.
# human TRPA1 (hTRPA1) [2] = molecular target: T1, human TRPA1 (hTRPA1); assay: Intracellular Ca2+ Imaging Assay 1 (TRPA1 activation rate, hTRPA1 stable expression cell line); format: cell-based; conditions: for TRPA1 Activation Rate (Mean ± Standard Error): relative to ionomycin, n = 6
# Description: as §1
# Two hundred microliters of each mushroom extract solution prepared in item 1 (1) was dispensed and the solvent was removed under vacuum using a desiccator. The dried residue left in the container was dissolved in 1 mL of assay buffer (Hank's Balanced Salt Solution without calcium and magnesium ions, containing 1 mM CaCl2 dihydrate, 20 mM HEPES, and 0.1% BSA). […]
# as §3, §4
# Fmax[s]: maximum fluorescence intensity after adding the test sample or positive control […]
# Fmax[I]: maximum fluorescence intensity after adding ionomycin
# human TRPA1 (hTRPA1) [3] = molecular target: T1, human TRPA1 (hTRPA1); assay: Intracellular Ca2+ Imaging Assay 3 (with or without TRPA1-specific antagonist A-967079); format: cell-based
# Description: as §1, §2, §3, §4
# Samples of 30 μM AITC, 100 μM or 5 μM lenthionine, or DMSO were used; the test was performed either in the presence of the TRPA1-specific antagonist A-967079 (1 μM) or in the absence thereof (DMSO: 20 μL/mL); apart from this, the procedure was the same as in (3) above, and the TRPA1-activating abilities of each sample were measured.
# Male ICR mice = assay: Test 1 for Ameliorating Decreased Appetite (food intake in mice after single gastric gavage); format: in vivo; conditions: for Food Intake (Mean ± Standard Error, n = 10): lenthionine 50 μmol/kg body weight, single gastric gavage, 30 minutes after start of feeding
# Description: Male ICR mice were kept in individual cages with ALPHA-dri (Shepherd Specialty Papers) as bedding, and they were fed a powdered diet (CE-2, CLEA Japan) using a powder feeder for mice (SN-950, Shinano Seisakusho Co., Ltd.), with ad libitum feeding and free access to water, for at least one week for acclimatization. During the few days prior to the experiment, daily handling and gavage training using a feeding needle (FG4202, Fuchigami Kikai) were performed.
# As test samples, the following were prepared for each of carrier solution (containing, by volume, 5% dimethyl sulfoxide, 1% Tween80, and 94% corn oil) and lenthionine solution (carrier solution containing 0.94 mg lenthionine per 1 mL): one containing the TRPA1-specific antagonist A-967079 (1.0 μmol of A-967079 per 1 mL of the carrier solution) and one not containing it; one of these was administered to 11- to 12-week-old mice under ad libitum feeding conditions by a single gastric gavage at 9:20 a.m. at 10 mL/kg body weight. The dose of lenthionine in molar terms was 50 μmol/kg body weight. Immediately after the single gavage, at 9:30 a.m., the powdered feeder inside the cage was replaced with a new feeder loaded with powdered diet whose mass had been measured beforehand; this time point was set as the start of the feeding experiment. Thirty minutes after the start of the feeding experiment, the mass of the feeder and any spilled feed in the cage was measured, and the food intake (g) was calculated (n=10).
# T1 sequence (O75762 whole entry): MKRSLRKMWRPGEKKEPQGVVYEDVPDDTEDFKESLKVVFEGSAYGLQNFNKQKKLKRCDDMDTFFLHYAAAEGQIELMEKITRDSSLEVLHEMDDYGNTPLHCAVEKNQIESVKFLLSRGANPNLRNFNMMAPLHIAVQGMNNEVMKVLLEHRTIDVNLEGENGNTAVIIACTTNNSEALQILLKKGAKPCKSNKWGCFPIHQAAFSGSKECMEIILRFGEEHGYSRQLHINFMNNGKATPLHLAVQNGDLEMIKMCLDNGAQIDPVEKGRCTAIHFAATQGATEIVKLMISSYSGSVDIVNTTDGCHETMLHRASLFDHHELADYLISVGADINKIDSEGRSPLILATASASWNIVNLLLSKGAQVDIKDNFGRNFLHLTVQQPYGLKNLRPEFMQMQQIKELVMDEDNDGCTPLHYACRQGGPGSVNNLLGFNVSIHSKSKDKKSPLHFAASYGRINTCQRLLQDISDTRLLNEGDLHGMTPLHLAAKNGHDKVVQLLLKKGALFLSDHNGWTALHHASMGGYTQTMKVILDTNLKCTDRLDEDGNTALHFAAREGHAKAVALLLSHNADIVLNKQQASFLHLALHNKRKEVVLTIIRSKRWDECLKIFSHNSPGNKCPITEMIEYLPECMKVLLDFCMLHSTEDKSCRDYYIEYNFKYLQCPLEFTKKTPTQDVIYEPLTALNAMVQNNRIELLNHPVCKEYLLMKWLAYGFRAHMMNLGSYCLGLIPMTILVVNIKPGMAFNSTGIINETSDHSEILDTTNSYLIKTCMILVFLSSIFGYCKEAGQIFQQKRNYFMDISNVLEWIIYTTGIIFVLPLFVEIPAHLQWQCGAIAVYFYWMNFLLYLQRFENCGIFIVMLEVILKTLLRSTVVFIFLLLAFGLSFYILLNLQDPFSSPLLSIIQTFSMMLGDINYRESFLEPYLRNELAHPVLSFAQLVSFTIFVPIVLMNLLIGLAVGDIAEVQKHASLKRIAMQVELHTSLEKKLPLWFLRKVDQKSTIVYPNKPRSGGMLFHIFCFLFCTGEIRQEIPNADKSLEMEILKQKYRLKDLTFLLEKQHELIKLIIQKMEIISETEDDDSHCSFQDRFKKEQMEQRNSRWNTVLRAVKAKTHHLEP
Compound,"TRPA1 Activation Rate (Mean ± Standard Error, n = 6) (human TRPA1 (hTRPA1) [1]; 0.01 μM)","TRPA1 Activation Rate (Mean ± Standard Error, n = 6) (human TRPA1 (hTRPA1) [1]; 0.1 μM)","TRPA1 Activation Rate (Mean ± Standard Error, n = 6) (human TRPA1 (hTRPA1) [1]; 0.5 μM)","TRPA1 Activation Rate (Mean ± Standard Error, n = 6) (human TRPA1 (hTRPA1) [1]; 1 μM)","TRPA1 Activation Rate (Mean ± Standard Error, n = 6) (human TRPA1 (hTRPA1) [1]; 5 μM)","TRPA1 Activation Rate (Mean ± Standard Error, n = 6) (human TRPA1 (hTRPA1) [1]; 10 μM)","TRPA1 Activation Rate (Mean ± Standard Error, n = 6) (human TRPA1 (hTRPA1) [1]; 50 μM)","TRPA1 Activation Rate (Mean ± Standard Error, n = 6) (human TRPA1 (hTRPA1) [1]; 100 μM)","TRPA1 Activation Rate (Mean ± Standard Error, n = 6) (human TRPA1 (hTRPA1) [1]; 300 μM)",further results
"C=CCN=C=S [AITC, allyl isothiocyanate, reference compound]",4.02 ± 0.50%,5.20 ± 0.19%,6.19 ± 0.32%,13.0 ± 1.79%,64.0 ± 4.13%,85.2 ± 3.76%,105 ± 1.86%,117 ± 2.57%,119 ± 2.74%,"TRPA1 Activation Rate (Mean ± Standard Error) (human TRPA1 (hTRPA1) [2]; AITC 30 μM final concentration): 106 ± 1.89%; TRPA1 Activation Rate (Mean ± Standard Error, n = 6) (human TRPA1 (hTRPA1) [3]; 30 μM, No Antagonist (DMSO 20 μL/mL)): 156 ± 1.38%; TRPA1 Activation Rate (Mean ± Standard Error, n = 6) (human TRPA1 (hTRPA1) [3]; 30 μM, With Antagonist A-967079 (1 μM)): 1.22 ± 0.06 %"
"C1SSCSSS1 [Lenthionine, 1,2,3,5,6-pentathiepane]",2.64 ± 0.19%,2.42 ± 0.14%,10.2 ± 0.82%,22.3 ± 1.04%,53.8 ± 2.29%,72.5 ± 2.88%,92.6 ± 3.83%,104 ± 1.94%,118 ± 2.65%,"TRPA1-activating effect, concentration dependence (in words) (human TRPA1 (hTRPA1) [1]; 0.01 μM-300 μM, compared with AITC): activated TRPA1 in a concentration-dependent manner, at similar intensity to AITC; TRPA1-activating effect (in words) (human TRPA1 (hTRPA1) [2]; Ca2+ imaging assay 1, summary of Table 1): activated TRPA1; TRPA1 Activation Rate (Mean ± Standard Error) (human TRPA1 (hTRPA1) [2]; lenthionine 50 μM final concentration): 93.0 ± 3.70%; Food Intake (Mean ± Standard Error, n = 10) (Male ICR mice; No Antagonist): 0.117 ± 0.035 g; Food Intake (Mean ± Standard Error, n = 10) (Male ICR mice; With Antagonist A-967079 (1.0 μmol per 1 mL)): 0.025 ± 0.023 g; Food intake versus carrier solution (in words) (Male ICR mice; lenthionine solution with TRPA1-specific antagonist A-967079): no increase in food intake was observed; Food intake versus carrier solution (in words) (Male ICR mice; lenthionine solution, No Antagonist): food intake increased; TRPA1 Activation Rate (Mean ± Standard Error, n = 6) (human TRPA1 (hTRPA1) [3]; 5 μM, No Antagonist (DMSO 20 μL/mL)): 64.6 ± 1.38%; TRPA1 Activation Rate (Mean ± Standard Error, n = 6) (human TRPA1 (hTRPA1) [3]; 5 μM, With Antagonist A-967079 (1 μM)): 1.46 ± 0.14 %; TRPA1 Activation Rate (Mean ± Standard Error, n = 6) (human TRPA1 (hTRPA1) [3]; 100 μM, No Antagonist (DMSO 20 μL/mL)): 133 ± 1.36%; TRPA1 Activation Rate (Mean ± Standard Error, n = 6) (human TRPA1 (hTRPA1) [3]; 100 μM, With Antagonist A-967079 (1 μM)): 1.61 ± 0.37 %; TRPA1-activating effect in presence of TRPA1-specific antagonist (in words) (human TRPA1 (hTRPA1) [3]; A-967079 1 μM): inhibited by the TRPA1-specific antagonist"
